Source: patent US5411976A, “New thiazolidine derivatives, process for preparing same and anti-amnestic composition containing same” (Kabushiki Kaisha Yakult Nonsha, priority 1987, dated 1995)
Non-standard residues stand in square brackets, D forms with d. Residues, ends and D or L forms follow the SMILES beside them. *: point of attachment. Thz = O=C(O)[C@@H]1CSCN1; Cbz = O=C(OCc1ccccc1)*

Legend:
prolyl endopeptidase = biological target: T1, prolyl endopeptidase (Homo sapiens, UniProt P48147); test: Inhibitory activity to prolyl endopeptidase (IC50); assay type: biochemical
T1 sequence (P48147 1-710): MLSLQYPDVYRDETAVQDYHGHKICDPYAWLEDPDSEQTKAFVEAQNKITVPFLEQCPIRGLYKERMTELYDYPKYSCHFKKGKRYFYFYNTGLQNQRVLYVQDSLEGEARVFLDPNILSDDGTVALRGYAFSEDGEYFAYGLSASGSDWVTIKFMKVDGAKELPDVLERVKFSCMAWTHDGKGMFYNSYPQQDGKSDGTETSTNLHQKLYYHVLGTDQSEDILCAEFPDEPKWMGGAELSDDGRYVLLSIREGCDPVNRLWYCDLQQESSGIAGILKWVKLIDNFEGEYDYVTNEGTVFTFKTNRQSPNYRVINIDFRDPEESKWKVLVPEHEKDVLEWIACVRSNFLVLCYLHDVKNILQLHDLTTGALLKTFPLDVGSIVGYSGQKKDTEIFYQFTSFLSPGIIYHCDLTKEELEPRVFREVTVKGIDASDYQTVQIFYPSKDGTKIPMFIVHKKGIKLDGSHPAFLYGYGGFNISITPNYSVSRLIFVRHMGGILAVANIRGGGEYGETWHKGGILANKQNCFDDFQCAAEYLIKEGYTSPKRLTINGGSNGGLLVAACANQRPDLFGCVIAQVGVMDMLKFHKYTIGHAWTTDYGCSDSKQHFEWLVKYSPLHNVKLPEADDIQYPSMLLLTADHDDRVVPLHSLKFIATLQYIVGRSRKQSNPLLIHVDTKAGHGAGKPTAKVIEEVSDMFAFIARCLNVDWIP

[1] = system: SCOP-induced amnestic rat; test: Step-down type passive avoidance test in scopolamine-induced amnestic rats; assay type: in vivo, rat (Wister strain); conditions: for Acquisition trial: Step-down latency / Acquisition trial: Number of step-down / Acquisition trial: Total time for the test: scopolamine after learning; for Retention trial: Step-down latency after 24 hours / Retention trial: Step-down latency after 48 hours: scopolamine 3.0 mg/kg i.p. after learning
Procedure: (2) A step-down type passive avoidance test
This test was carried out by using the undermentioned apparatus (A) and test animal (B) according to the undermentioned testing method (C).
(A) Test chamber for passive avoidance response of rats
A test chamber of 200(w)×200(1) mm in area was made of transparent acrylic resin plates for observation of the inside and was provided on one side thereof with an electrically insulated platform of 150(w)×200(1)×40(h) in size and on the bottom with a grid floor made of stainless steel which was equipped with a foot-shock generator/scrumbler (HASG-101/S, Medical Agent, Inc.) capable of sending electric current to the grid floor for giving a test animal electric foot shock.
5-Weeks-old male rats of Wister strain weighing 100-145 g (Japan Clea Co., Ltd.) were used as test animals.
The passive avoidance test consists of two steps; an acquisition trial and a retention trial. […] As control, only saline was administered intraperitoneally to a group of the rats. In the acquisition trial, the rat was placed on the platform in the test chamber and, when the rat stepped down on the floor, the electric current of 4 mA was immediately sent to the grid continuously until the rat went up on the platform. At the time the rat having gone up on the platform stayed there for more than 20 seconds, the rat was regarded to have learned the situation and taken out of the test chamber. Repeating this test with another rat under the same condition, the rats learned the situation were collected as passing the test for the acquisition trial. A total time of measurement in the acquisition trial was limited to 300 seconds as maximum, and the time elapsing until the rat stepped down to the grid floor (step-down latency, SDL), the total time elapsing until the rat learned the situation and the times of step-down were measured. […] Immediately after the acquisition trial, scopolamine hydrobromide (SCOP) dissolved in saline was administered intraperitoneally in a dose of 3.0 mg/kg of body weight to the rat to prepare a SCOP-induced amnestic rat. As control, only saline was administered intraperitoneally to a group of the rats. The retention trial was carried out by putting the rat on the platform of the test chamber after the lapse of 24 and 48 hours from the acquisition trial, and the time elapsing until the rat went down to the floor (SDL) was measured. A statistical treatment of the data obtained was made according to the Student's t-test.

[2] = 2.2 mg/kg i.p. one hour before acquisition trial

Row | Inhibitory activity in vitro (in words) (prolyl endopeptidase) | Structure (SMILES) | Acquisition trial: Step-down latency [1, 2] [s] | Retention trial: Step-down latency after 24 hours ([1]; 2.2 mg/kg i.p.) [s] | Retention trial: Step-down latency after 48 hours ([1]; 2.2 mg/kg i.p.) [s] | Acquisition trial: Number of step-down ([1]; 2.2 mg/kg i.p.) [times] | Acquisition trial: Total time for the test ([1]; 2.2 mg/kg i.p.) [s] | Retention trial: Step-down latency after 24 hours ([1]; 11.0 mg/kg i.p.) [s] | Retention trial: Step-down latency after 48 hours ([1]; 11.0 mg/kg i.p.) [s] | Acquisition trial: Number of step-down ([1]; 11.0 mg/kg i.p.) [times] | Acquisition trial: Step-down latency ([1]; 11.0 mg/kg i.p.) [s] | Acquisition trial: Total time for the test ([1]; 11.0 mg/kg i.p.) [s]
1 | not effective in vitro | O=C([C@@H]1CSCN1C(=O)OCc1ccccc1)N1CSC[C@H]1CO [Example 3, N-benzyloxycarbonyl-L-thioprolyl-L-thioprolinol] | 9.8 | 238.2 | 174.0 | 2.4 | 67.5 | – | – | – | – | –
2 | – | O=C[C@@H]1CSCN1C(=O)[C@@H]1CSCN1C(=O)OCc1ccccc1 [Example 4, N-benzyloxycarbonyl-L-thioprolyl-L-thioprolinal] (Cbz-[Thz]-[Thz]-aldehyde) | 7.6 | 170.9 | 176.5 | 2.0 | 52.1 | 245.7 | 177.0 | 2.2 | 8.9 | 57.1
